According to the NIST ThermoML archive (doi:10.1016/j.jct.2017.11.015):

Columns and labels:
[1] = molar heat capacity at constant pressure; conditions: 101.33 kPa, Crystal, Small sample (50 mg) DSC
[2] = molar heat capacity at constant pressure; an = ratio of the nth substance listed; conditions: 100 kPa, Crystal of intercomponent compound 1, Small sample (50 mg) DSC, a2 = 25

[Bi+3].[Bi+3].[O-2].[O-2].[O-2] [bismuth oxide]
[1]
Conditions	molar heat capacity at constant pressure [J/K/mol]
333 K	115.4
353 K	117
403 K	120.1
453 K	122.4
503 K	124.6
553 K	126.5
603 K	128
653 K	129.7
703 K	131.4
753 K	132.7
778 K	133.2
803 K	133.3
813 K	133.5

[Fe+3].[Fe+3].[O-2].[O-2].[O-2] [ferric oxide] + [Bi+3].[Bi+3].[O-2].[O-2].[O-2]
[2]
Conditions	molar heat capacity at constant pressure [J/K/mol]
308 K	1355.9
353 K	1430.1
403 K	1482.3
453 K	1520.3
503 K	1543.9
553 K	1563.9
603 K	1587.1
653 K	1610.4
703 K	1628.1
753 K	1644.7
803 K	1658.4
818 K	1662.7
